Holding throughout (assay type): cell-based
The subject of test [1] is platelets (platelet rich plasma). The test can be described thus: Inhibition of platelet aggregation, ADP as agonist. The settings on record: ADP 4 μM, human PRP, read-out: % Reduction in Aggregation, ADP (4 μM); for inhibition at 250 µM: compound 250 μM; for inhibition at 100 µM: compound 100 μM; for inhibition at 500 µM: compound 500 μM. The method, then: (§1) Platelet rich plasma (PRP) was obtained by drawing whole blood from normal human donors (not on any medication) into sodium citrate tubes (3.2%), and centrifuging at 160 xg for about 10 minutes. Platelet poor plasma (PPP) was obtained by centrifuging the remainder of the sample after the platelets were removed at 800 xg for about 10 minutes. The PRP was adjusted to a count of 280×10^9/L using a mixture of PRP and PPP. The platelets (200 μL) were incubated with the test compounds (25 μL) adjusted to various concentrations (50, 100, 250, and 500 μM) for about 30 minutes at room temperature (approximate final platelet count in the incubation mixture of 250×10^9/L). The samples were incubated for about 3 minutes at about 37° C., and then transferred to the mixing wells of a Chrono-log 4 channel aggregometer (Chrono-log Corp., Havertown, Pa.). After baselines were established, the agonist (25 μL of 40 μM ADP (Sigma, St. Louis, Mo.) or 25 μL of 50 μg/mL and 10 μg/mL collagen (Helena Laboratories, Beaumont, Tex.) or 25 μL of 120 μM thrombin receptor activating peptide (TRAP) (Sigma)) was then added. Aggregation was monitored for 5 minutes at 37° C. with stirring (1000 rpm). The amplitude and slope of each tracing were calculated to determine the amount of aggregation. Control samples were performed using only solvent. The % reduction in aggregation was calculated for each sample compared to the proper solvent control.

Test [2] shares this test system. Put plainly: Inhibition of platelet aggregation, thrombin receptor activating peptide (TRAP) as agonist. The settings on record: TRAP 12 μM, human PRP, read-out: % Reduction in Aggregation, TRAP (12 μM); for inhibition at 250 µM: compound 250 μM; for inhibition at 100 µM: compound 100 μM; for inhibition at 500 µM: compound 500 μM. The method, then: as §1
Test [3] has the same test system. Put plainly: Inhibition of platelet aggregation, collagen as agonist. The settings on record: human PRP; for inhibition at 250 µM: compound 250 μM; for inhibition at 100 µM: compound 100 μM; for inhibition at 50 µM: compound 50 μM; for inhibition at 500 µM: compound 500 μM. On the procedure:
as §1

[4] abbreviates: collagen 1 μg/mL, read-out: % Reduction in Aggregation, Collagen (1 μg/mL).
[5] abbreviates: collagen 5 μg/mL, read-out: % Reduction in Aggregation, Collagen (5 μg/mL).

On to `Cc1ncc(CNc2ccc(-c3ccc(C(=N)N)cc3)cc2OC(F)(F)F)c(CO)c1O` [Compound 35], for which the inhibition at 250 µM in test [1] is 84%; in test [2] it was 35%; in test [3] (setting [4]) it was 86%; in test [3] (setting [5]) it was 12%.

Regarding `Cc1ncc(CO)c(CNc2ccc(C(=N)N)cc2)c1O` [Compound 39, 4-[(3-Hydroxy-5-hydroxymethyl-2-methyl-pyridin-4-ylmethyl)-amino]-benzamidine], the inhibition at 100 µM stood at 3% in test [1], 5% in test [2], 1% in test [3] (setting [4]) and 8% in test [3] (setting [5]).

Consider `Cc1ncc(CN(Cc2ccc(C(=N)N)cc2)c2ccc(C(=N)N)cc2)c(CO)c1O` [Compound 52, 4-(N-(4-Carbamimidoyl-benzyl)-N-((5-hydroxy-4-(hydroxymethyl)-6-methylpyridin-3-yl)methyl)amino)benzamidine], for which the inhibition at 50 µM was 95% in test [1] (compound 50 μM), 95% in test [2] (compound 50 μM), 93% in test [3] (setting [4]) and 7% in test [3] (setting [5]).

In the case of `Cc1ncc(CNc2ccc(-c3ccc(C(=N)N)cc3)cc2C(F)(F)F)c(CO)c1O` [Compound 37, 4′-[(5-Hydroxy-4-hydroxymethyl-6-methyl-pyridin-3-ylmethyl)-amino]-3′-trifluoromethyl-biphenyl-4-carboxamidine], the inhibition at 250 µM in test [1] is 43%; in test [2], 17%; in test [3] (setting [4]) it was 19%; in test [3] (setting [5]), 6%.

Regarding `Cc1ncc(CNC(=O)c2ccc(C(=N)N)cc2)c(CO)c1O` [Compound 5, 4-Carbamimidoyl-N-(5-hydroxyl-4-hydroxymethyl-6-methyl-pyridin-3-ylmethyl)-benzamide], the inhibition at 500 µM in test [1] is 71%; in test [2], 84%; in test [3] (setting [4]) it was 91%; in test [3] (setting [5]), 27%.

As for `Cc1ncc(CNC(=O)c2ccc(-c3ccc(C(=N)N)cc3)cc2)c(C(=O)O)c1O` [Compound 26, 5-{[(4′-Carbamimidoyl-biphenyl-4-carbonyl)-amino]-methyl}-3-hydroxy-2-methyl-isonicotinic acid], the inhibition at 100 µM in test [1] was determined as 62%; in test [2] it was 17%; in test [3] (setting [4]) it was 52%; in test [3] (setting [5]), 18%.

For `Cc1ncc(CNCc2ccc(C(=N)N)cc2)c(CO)c1O` [Compound 7, 4-{[(5-Hydroxyl-4-hydroxymethyl-6-methyl-pyridin-3-ylmethyl)-amino]-methyl}-benzamidine], the inhibition at 500 µM in test [1] stood at 26%; in test [2], 34%; in test [3] (setting [4]), 2%; in test [3] (setting [5]) it was 8%.

With `COC(=O)c1c(CNC(=O)c2ccc(-c3ccc(C(=N)N)cc3)cc2)cnc(C)c1OC` [Compound 28, 5-{[(4′-Carbamimidoyl-biphenyl-4-carbonyl)-amino]-methyl}-3-methoxy-2-methyl-isonicotinic acid methyl ester], the inhibition at 250 µM in test [1] came out at 46%; in test [2], 10%; in test [3] (setting [4]) it was 17%; in test [3] (setting [5]) it was 24%.

Take `Cc1ncc(CNc2ccc(-c3ccc(C(=N)N)cc3)cn2)c(CO)c1O` [Compound 31, 4-{6-[(5-Hydroxy-4-hydroxymethyl-6-methyl-pyridin-3-ylmethyl)-amino]-pyridin-3-yl}-benzamidine]: the inhibition at 250 µM in test [1] is 79%; in test [2], 64%; in test [3] (setting [4]) it was 74%; in test [3] (setting [5]) it was 28%.

Turning to `Cc1ncc(CNCc2cccc(C(=N)N)c2)c(CO)c1O` [Compound 9, 3-{[(5-Hydroxy-4-hydroxymethyl-6-methyl-pyridin-3-ylmethyl)-amino]-methyl]-benzamidine], the inhibition at 500 µM in test [1] was 2%; in test [2], 0%; in test [3] (setting [4]), 0%; in test [3] (setting [5]) it was 10%.

For the origin of these results see patent US20060094749A1, “Substituted pyridoxines as anti-platelet agents” (Medicure International Inc., priority 2004, published 2006).
